According to paper PMC10539501 (Nature Communications, 2023):
Like-named read-outs stand apart in the source and are kept apart here. Starred links: 1 amine or outer side, 2 acyl side, 3 side chain; linkers in the order of their positions; H or OH if unused. Non-standard residues stand in square brackets, D forms with d. Residues, ends and D or L forms follow the SMILES beside them. X1 = CC(C)C[C@H](NC(=S)[C@H](Cc1ccc(O)cc1)N[*:1])C(=O)[*:2]; X9 = O=C([C@@H]1CCCN1C(=S)[C@H](Cc1ccccc1)N[*:1])[*:2]

What was measured:
[1] = PAMPA passive permeability; assay type: in vitro ADME;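 note: passive permeability across an artificial membrane in 96-well pre-coated PAMPA plates, which lack transporters and efflux systems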
Experimental: Encouraged by this, the passive permeability of the analogs was evaluated using an artificial membrane (PAMPA), which measures permeability of compounds in the absence of transporters and efflux systems[32].
96-well BD Corning® pre-coated PAMPA plates were used following the supplier’s protocol, details in Supplementary Information.

[2] = assay type: physicochemical
SSTR2 = target: T1, SSTR2 (Homo sapiens, UniProt P30874); assay: GloSensor assay, inhibition of forskolin-induced cAMP production; assay type: cell-based
T1 construct: expressed in transfected cells; host or cells: HEK-293T (CRL-3216)
T1 sequence (P30874 whole entry): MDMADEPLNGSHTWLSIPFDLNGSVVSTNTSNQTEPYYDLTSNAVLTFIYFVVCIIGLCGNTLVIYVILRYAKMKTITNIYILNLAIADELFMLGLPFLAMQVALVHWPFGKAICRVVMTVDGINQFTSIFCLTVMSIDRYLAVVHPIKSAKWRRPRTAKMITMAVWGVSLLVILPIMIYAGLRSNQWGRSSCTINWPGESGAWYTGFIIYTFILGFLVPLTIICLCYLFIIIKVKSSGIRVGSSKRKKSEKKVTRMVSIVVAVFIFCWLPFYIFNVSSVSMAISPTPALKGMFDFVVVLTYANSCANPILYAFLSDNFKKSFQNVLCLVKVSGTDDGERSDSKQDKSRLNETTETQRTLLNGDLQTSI

SSTR5 = target: T2, SSTR5 (Homo sapiens, UniProt P35346); assay: as above; assay type: cell-based
T2 construct: expressed in transfected cells; host or cells: HEK-293T (CRL-3216)
T2 sequence (P35346 whole entry): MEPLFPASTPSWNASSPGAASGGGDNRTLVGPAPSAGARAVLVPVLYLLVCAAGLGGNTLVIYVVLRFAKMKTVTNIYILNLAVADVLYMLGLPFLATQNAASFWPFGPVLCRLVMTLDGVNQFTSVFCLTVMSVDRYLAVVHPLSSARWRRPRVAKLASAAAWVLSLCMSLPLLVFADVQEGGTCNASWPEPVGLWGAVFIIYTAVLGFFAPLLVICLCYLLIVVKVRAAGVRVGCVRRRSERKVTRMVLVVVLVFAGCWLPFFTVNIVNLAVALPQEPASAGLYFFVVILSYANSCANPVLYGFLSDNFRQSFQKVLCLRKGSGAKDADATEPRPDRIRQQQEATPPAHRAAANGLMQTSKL
Experimental: HEK-293T cells (CRL-3216 from ATCC, procured from NCCS, Pune) were co-transfected with human somatostatin receptor subtypes 2 & 5, plasmid cDNA, and cAMP biosensor (pGloSensorTM-22F plasmid; Promega Corp.) using PEImax. Ligand incubation was followed by the addition and incubation of forskolin (FSK) to the plate. Dose-dependent inhibition of forskolin-induced cAMP production by the peptide ligands was measured using a luminescence plate reader. An elaborate description of the assay setup has been provided in Supplementary Information.

[3] = tested on: growth hormone (GH) release; assay: In vivo inhibition of growth hormone release (sandwich ELISA); parameters: species or system rats
Experimental: In vivo inhibition of GH. Finally, we estimated the in vivo efficacy of 13 and the thioamidated analogs 13b, 13d, and 13e in suppressing the release of growth hormone (GH) post subcutaneous injection at 250 μg/kg dosage (Fig. 7e). 13a was also included as a negative control to assess its effect on GH release. The rats were bled from their orbital sinus, and the plasma GH levels were evaluated through sandwich ELISA. […] This correlates well with the high plasma concentration of 13 at the initial time points and a rapid drop within 2 h of s.c. administration (Fig. 7c). […] In contrast, the inhibitory effect lasts longer in 13b, 13d, and 13e showing a significant reduction in plasma GH levels within 24–48 h (Fig. 7h). […] The rapid drop in plasma concentration of 13 is responsible for its least in vivo efficacy.
Animal housing and acclimatization were done at Central Animal Facility, IISc Bangalore, as mentioned in the previous section, following protocols from the IEAC and CPCSEA. […] Samples were processed as discussed in Supplementary Information, and sandwich ELISA was performed to measure the growth hormone level in blood plasma. For acute toxicity, after peptide injection (s.c.), blood samples were collected on the 14th day for liver and kidney function tests.

in vivo [4] = settings: male, rat, sc; for half-life: Sprague-Dawley
Experimental: Subsequently, we selected 13a, 13b, 13d, and 13e for assessing their plasma exposure post single dose subcutaneous injection into male Sprague Dawley rats.
(§1) All animals were housed individually in the animal facility at Anthem Biosciences Pvt. Ltd and were acclimatized for 3 days. All animals were fasted overnight before dosing, whereas access to water was provided ad libitum. Peptides were administered orally and via s.c. route and blood samples were collected at different time points through a jugular vein catheter.

physchem = settings: pH 7.4
in vitro [5] = settings: both, human, plasma
Experimental: (§2) Blood was freshly drawn from three healthy adults, two male and one person of 26–28 year old. […] The plasma was separated by centrifugation. […] For checking metabolic stability, the required volume of plasma was pre-incubated at 37 °C prior to the experiment for 2 min, followed by spiking with the peptides. At different time points, plasma was aliquoted. The supernatant was separated and used for RP-HPLC quantification. Rapid Equilibrium Dialysis (RED) assay was performed to assess the plasma protein binding of the peptides following the supplier’s protocol.

in vitro [6] = settings: pig, simulated intestinal fluid
in vitro [7] = settings: both, human, plasma; remark: listed apart in the source
[8] = HDX of amide protons by NMR in DMSO-d6:D2O (8:2)
Experimental: (§3) As hydrogen bonding and solvation of NH groups play an important role in the permeability of macrocycles, we determined the solvent accessibility of individual amide protons in 10 and 10a–10f by hydrogen-deuterium exchange (HDX) through NMR spectroscopy (Figs. 2a–c).
(§4) Spectra were recorded on a Bruker AV 500 MHz spectrometer at 25 °C.

SIF = settings: up to 72 hours
[9] = assay type: physicochemical; remark: listed apart in the source
in vitro [10] = assay type: in vitro ADME, human
Experimental: (§5) The Caco-2 cell (HTB-37^TM from ATCC, procured from NCCS, Pune) monolayer was washed and pre-incubated at 37 °C and 5% CO2 for 30 min with HBSS-HEPES buffer containing 1% DMSO prior to experimentation. The assay was performed 21 days post-seeding of cells. TEER values were measured before starting and after the completion of the assay. Acceptor and donor well concentrations of the peptides and controls were assessed through LC-MS/MS.

Caco-2 cells = assay: in vitro; assay type: in vitro ADME, human; settings: Caco-2
Experimental: as §5

pepsin [11] = target: T3, pepsin (Sus scrofa, UniProt P00791); settings: pH 1.2
T3 sequence (P00791 60-385): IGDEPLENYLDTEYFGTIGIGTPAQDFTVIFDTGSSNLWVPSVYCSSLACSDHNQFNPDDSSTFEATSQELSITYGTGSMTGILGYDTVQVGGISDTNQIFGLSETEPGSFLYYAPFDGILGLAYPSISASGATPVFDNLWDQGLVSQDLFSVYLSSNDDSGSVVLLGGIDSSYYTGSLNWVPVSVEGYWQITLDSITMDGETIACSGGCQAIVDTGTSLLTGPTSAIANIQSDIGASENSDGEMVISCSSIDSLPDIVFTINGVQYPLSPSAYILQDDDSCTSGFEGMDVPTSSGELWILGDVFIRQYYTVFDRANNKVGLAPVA
Experimental: (§6) A stability assessment of the peptides was done in simulated gastric (SGF) and intestinal (SIF) fluids and human liver microsomes. The degradation kinetics of the aliquoted samples at desired time points were analyzed through RP-HPLC.

[12] = rat, in vivo, po, 10 mg/kg
Experimental: as §1

in vivo [13] = settings: male, Wistar, rat
Experimental: as §1

pepsin [14] = target: T3, pepsin; assay: in vitro; settings: simulated gastric fluid, pH 1.2
Experimental: as §6

in vitro [15] = settings: human, microsomes
Experimental: as §6

[16] = Retention in hydrophobic C18 column by HPLC; settings: Supplementary Fig 3d, logD7.4 vs tR
[17] = Octanol-water distribution coefficient (logD7.4); settings: octanol-water, pH 7.4; value plotted against PAMPA (Supplementary Fig 12)
[18] = HDX of amide protons by NMR in CDCl3:CD3OD (8:2)
Experimental: as §3, §4

[19] = 20% CD3OD in CDCl3, % remaining after 24 hours
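Throughout, for Papp A-B avg (second block): Caco-2 monolayers used 21 days after seeding in HBSS-HEPES buffer with 1% DMSO, donor and acceptor levels quantified by LC-MS/MS, TEER checked before and after.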
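Throughout, for Papp A-B set 1 (second block): Caco-2 monolayers used 21 days after seeding in HBSS-HEPES buffer with 1% DMSO, donor and acceptor levels quantified by LC-MS/MS, TEER checked before and after.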
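Throughout, for Papp A-B set 2 (second block): Caco-2 monolayers used 21 days after seeding in HBSS-HEPES buffer with 1% DMSO, donor and acceptor levels quantified by LC-MS/MS, TEER checked before and after.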
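Throughout, for Papp B-A avg (second block): Caco-2 monolayers used 21 days after seeding in HBSS-HEPES buffer with 1% DMSO, donor and acceptor levels quantified by LC-MS/MS, TEER checked before and after.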

Experimental for human liver microsomes: as §6
Experimental for plasma proteins: as §2

Compound: C[C@@H](O)[C@@H]1NC(=O)[C@H](CCCCN)NC(=O)[C@@H](Cc2c[nH]c3ccccc23)NC(=O)[C@H](Cc2ccccc2)NC(=O)[C@@H]2CCCN2C(=O)[C@H](Cc2ccccc2)NC1=O [compound 13, cyclo(-D-Trp^1-Lys-Thr-Phe-Pro-Phe^6-)] (cyclo(PF[dW]KTF))
- Papp ([1]; Pe): 1.34 ×10⁻⁶ cm/s
- logD heptane ethylene glycol [2]: -1.43
- IC50 (SSTR2): 16.6 ± 4.2 nM
- IC50 (SSTR5): 105 ± 24.2 nM
- AUC 0_24 ([3]; growth hormone AUC 0-24 h, mean of n = 3): 504 ng·h/mL
- AUC 0_48 ([3]; growth hormone AUC 0-48 h, mean of n = 3): 1371 ng·h/mL
- AUC 24_48 ([3]; growth hormone AUC 24-48 h, mean of n = 3): 817 ng·h/mL
- inhibition of unstimulated GH release ([3]; rats, 250 μg/kg s.c., plasma GH by sandwich ELISA over 48 h): significant inhibition
- t1/2 in human blood plasma: 15 ± 0.9 h
- level at 0.5 h (in vivo [4]; Sprague Dawley): 195 ng/mL
- level at 1 h (in vivo [4]; Sprague Dawley): 128 ng/mL
- level at 2 h (in vivo [4]; Sprague Dawley, 250 ug/kg): 8 ng/mL
- half-life (in vivo [4]): 18 ± 3 min
- logD (physchem): -1.23
- fraction unbound (in vitro [5]): 0.24
- half-life (in vitro [6]): 108 min
- half-life (in vitro [7]): 840 min
- t1/2 for all HNs (HDX) ([8]; HDX experiment by NMR, solvent not stated at the place (Supplementary Fig. 18)): < 5 min
- Half-lives (min), amide proton D-Trp1 ([8]; Supplementary Fig 18b, HDX of amide proton of D-Trp1, solvent not given): >5 min
- Half-lives (min), amide proton Lys2 ([8]; Supplementary Fig 18b, HDX of amide proton of Lys2, solvent not given): >5 min
- Half-lives (min), amide proton Phe4 ([8]; Supplementary Fig 18b, HDX of amide proton of Phe4, solvent not given): >5 min
- Half-lives (min), amide proton Phe6 ([8]; Supplementary Fig 18b, HDX of amide proton of Phe6, solvent not given): >5 min
- Half-lives (min), amide proton Thr3 ([8]; Supplementary Fig 18b, HDX of amide proton of Thr3, solvent not given): >5 min

Compound: cyclo(D-Trp^1-Lys'-Thr-Phe-Pro-Phe^6)
- not cleaved (SIF): prevented the degradation of the macrocycle over 72 h

Compound: C[C@@H](O)[C@@H]1NC(=O)[C@H](CCCCN)NC(=O)[C@@H](Cc2c[nH]c3ccccc23)NC(=O)[C@H](Cc2ccccc2)NC(=O)[C@@H]2CCCN2C(=S)[C@H](Cc2ccccc2)NC1=O [13d] (cyclo(F[dW]KT[X9]))
- Papp ([1]; Pe): 2.29 ×10⁻⁶ cm/s
- logD heptane ethylene glycol [2]: -0.94
- IC50 (SSTR2; read-out: IC50 sstr2): 20.3 ± 11.9 nM
- IC50 (SSTR5): > 10000 nM
- t1/2 in human blood plasma: 42 h
- level at 0.5 h (in vivo [4]; Sprague Dawley): 92 ng/mL
- level at 1 h (in vivo [4]; Sprague Dawley): 77 ng/mL
- half-life (in vivo [4]): 66 ± 24 min
- logD (physchem): -0.84
- fraction unbound (in vitro [5]): 0.11
- half-life (in vitro [7]): 2520 min

Compound: CC(C)C[C@@H]1NC(=O)[C@@H](CC(C)C)NC(=O)[C@H](CC(C)C)NC(=S)[C@H](Cc2ccc(O)cc2)NC(=O)[C@H]2CCCN2C(=O)[C@H](CC(C)C)NC1=O [10e] (cyclo(LL[dP][X1][dL]))
- % solubility [9]: 14%
- Pe Avg [1]: 7.4e-06 cm/s
- Pe set1 [1]: 7.43e-06 cm/s
- Pe set2 [1]: 6.36e-06 cm/s
- Pe set3 [1]: 8.29e-06 cm/s
- Papp ([1]; Pe Avg): 7.4 ×10⁻⁶ cm/s
- logD heptane ethylene glycol [2]: 0.94
- Papp A→B (in vitro [10]; Caco-2, Papp A-B + Elacridar avg): 6.1 ×10⁻⁶ cm/s
- Papp A→B (in vitro [10]; Caco-2, Papp A-B avg): 2.01 ×10⁻⁶ cm/s
- Papp B→A (in vitro [10]; Caco-2, Papp B-A + Elacridar avg): 9.5 ×10⁻⁶ cm/s
- Papp B→A (in vitro [10]; Caco-2, Papp B-A avg): 37.6 ×10⁻⁶ cm/s
- Papp A-B avg (second block) (Caco-2 cells): 2.01e-06 cm/s
- Papp A-B set 1 (second block) (Caco-2 cells): 2.06e-06 cm/s
- Papp A-B set 2 (second block) (Caco-2 cells): 1.96e-06 cm/s
- Papp B-A avg (second block) (Caco-2 cells): 3.76e-05 cm/s
- Papp B-A set 1 (second block) (Caco-2 cells): 3.86e-05 cm/s
- Papp B-A set 2 (second block) (Caco-2 cells): 3.67e-05 cm/s
- Protein binding set1 (plasma proteins): 100%
- Protein binding set2 (plasma proteins): 95%
- Protein binding set3 (plasma proteins): 100%
- Half lives (SGF) set1 (pepsin [11]): 259 min
- Half lives (human liver microsomes): 24.8
- AUClast p.o [12]: 359.5 ng·h/mL
- time over which the peptide is detectable in plasma [12]: ≥ 8 h
- AUC(0-t) (in vivo [13]; iv): 2280 ng·h/mL
- Cmax (in vivo [13]; iv): 2660 ng/mL
- MRT (in vivo [13]; iv): 1.5 h
- Vd (in vivo [13]; iv): 0.7 L/kg
- clearance (in vivo [13]; iv): 7.5 mL/min/kg
- bioavailability (in vivo [13]; po): 1.6%
- AUC(0-t) (in vivo [13]; po, 10 mg/kg): 360 ng·h/mL
- Cmax (in vivo [13]; po, 10 mg/kg): 47.2 ng/mL
- MRT (in vivo [13]; po, 10 mg/kg): 5.9 h
- level at 3 h (in vivo [13]; po, 10 mg/kg): 32.6 ng/mL
- logD (physchem): 1.45
- fraction unbound (in vitro [5]): 0.01
- half-life (pepsin [14]): 230 min
- remaining at 5 min (pepsin [14]): 82%
- remaining at 10 min (pepsin [14]): 78%
- remaining at 20 min (pepsin [14]): 73%
- remaining at 0.5 h (pepsin [14]): 66%
- remaining at 1 h (pepsin [14]): 61%
- remaining at 2 h (pepsin [14]): 58%
- remaining at 4 h (pepsin [14]): 49%
- remaining at 8 h (pepsin [14]): 41%
- remaining at 12 h (pepsin [14]): 35%
- remaining at 24 h (pepsin [14]): 24%
- half-life (in vitro [6]): 241 min
- remaining at 10 min (in vitro [6]): 76.6%
- remaining at 0.5 h (in vitro [6]): 68.3%
- remaining at 1 h (in vitro [6]): 62.8%
- remaining at 2 h (in vitro [6]): 58.3%
- remaining at 4 h (in vitro [6]): 49.7%
- remaining at 8 h (in vitro [6]): 40.9%
- remaining at 12 h (in vitro [6]): 27.5%
- remaining at 24 h (in vitro [6]): 19.9%
- microsomal CLint (in vitro [15]): 56.5 µL/min/mg
- remaining at 5 min (in vitro [15]): 97%
- remaining at 10 min (in vitro [15]): 70%
- remaining at 20 min (in vitro [15]): 55%
- remaining at 0.5 h (in vitro [15]): 47%
- remaining at 0.75 h (in vitro [15]): 37%
- remaining at 1 h (in vitro [15]): 27%
- half-life (in vitro [7]): 1560 min
- remaining at 1 h (in vitro [7]): 90%
- remaining at 3 h (in vitro [7]): 82%
- remaining at 5 h (in vitro [7]): 84%
- remaining at 7 h (in vitro [7]): 76%
- remaining at 9 h (in vitro [7]): 67%
- remaining at 12 h (in vitro [7]): 61%
- remaining at 24 h (in vitro [7]): 50%
- remaining at 36 h (in vitro [7]): 43%
- remaining at 48 h (in vitro [7]): 32%
- remaining at 60 h (in vitro [7]): 25%
- remaining at 72 h (in vitro [7]): 12%
- tR [16]: 13.5 min
- logD7.4 [17]: 1.65
- Half-life of D-Leu1 amide proton (HDX) ([8]; HDX by NMR, 20% D2O in DMSO-d6): 46 min
- Half-life of Leu2 amide proton (HDX) ([8]; HDX by NMR, 20% D2O in DMSO-d6): 36 min
- Half-life of Leu3 amide proton (HDX) ([8]; HDX by NMR, 20% D2O in DMSO-d6): 191 min
- Half-life of Leu6 amide proton (HDX) ([8]; HDX by NMR, 20% D2O in DMSO-d6): 650 min
- Half-life of Tyr5 amide proton (HDX) ([8]; HDX by NMR, 20% D2O in DMSO-d6): 35 min
- Half-life of D-Leu1 amide proton (HDX) ([18]; 20% CD3OD in CDCl3): 10 min
- Half-life of Leu2 amide proton (HDX) ([18]; 20% CD3OD in CDCl3): 2 min
- Half-life of Leu3 amide proton (HDX) ([18]; 20% CD3OD in CDCl3): > 1440 min
- Half-life of Leu6 amide proton (HDX) ([18]; 20% CD3OD in CDCl3): > 1440 min
- Half-life of Tyr5 amide proton (HDX) ([18]; 20% CD3OD in CDCl3): 188 min
- % intact NH, Leu3 [18, 19]: 66%
- % intact NH, Leu6 [18, 19]: 70%

Compound: cyclo(-D-Trp^1-Lys-Thr-Phe-Pro-Phe^6-)
- cleaved bond (SIF): Lys2-Thr3, major, 1 hour

Compound: cyclo(D-Trp^1-Lys-Thr-Phe-Pro-Phe^6)
- not cleaved (SIF): prevented the degradation of the macrocycle over 72 h
